Experimental data: ChEMBL document CHEMBL4673271, “Denigrins and Dactylpyrroles, Arylpyrrole Alkaloids from a Dactylia sp. Marine Sponge” (J Nat Prod, 2020)
Starred links: 1 amine or outer side, 2 acyl side, 3 side chain; linkers in the order of their positions; H or OH if unused. Positions of bridges follow the written chain, without caps; N, C: chain ends. Non-standard residues stand in square brackets, D forms with d. Residues, ends and D or L forms follow the SMILES beside them. Chains are numbered I, II in the order given. Actinocin(1to9) = Cc1c2oc3c(C)ccc(C(=O)[*:2])c3nc-2c(C(=O)[*:1])c(N)c1=O; NMeV = CN[C@H](C(=O)O)C(C)C; Sar = CNCC(=O)O

How the values were obtained:
Assay type in all cases: cell-based
[1] = Inhibition of PAX3-FOXO1 (unknown origin) stably transfected Rh4 cells co-expressing ALK-Luc after 24 hrs by SteadyLite luciferase assay; conditions: Homo sapiens, Rh4, 24 h
[2] = Cytotoxicity against human Rh4 cells assessed as reduction in cell viability >=20 uM
[3] = Inhibition of PAX3-FOXO1 (unknown origin) stably transfected Rh4 cells co-expressing CMV-Luc after 24 hrs by SteadyLite luciferase assay; conditions: Homo sapiens, Rh4, 24 h

Row | IC50 [1] [µM] | IC50 [3] [µM] | SMILES | Activity [2]
1 | 13 | 13 | O=C1C(c2ccc(O)cc2)=C2C(=C(c3ccc(O)cc3)C(=O)N2CCc2ccc(O)cc2)c2c1[nH]c1c(O)cccc21 | Toxic
2 | 0.001 | 0.001 | Cc1c2oc3c(C)ccc(C(=O)N[C@@H]4C(=O)N[C@H](C(C)C)C(=O)N5CCC[C@H]5C(=O)N(C)CC(=O)N(C)[C@@H](C(C)C)C(=O)O[C@@H]4C)c3nc-2c(C(=O)N[C@@H]2C(=O)N[C@H](C(C)C)C(=O)N3CCC[C@H]3C(=O)N(C)CC(=O)N(C)[C@@H](C(C)C)C(=O)O[C@@H]2C)c(N)c1=O [DACTINOMYCIN] (I: T[dV]P[Sar][NMeV] / II: T[dV]P[Sar][NMeV]; ester I:1-I:C, II:1-II:C; linker I:N-II:N via Actinocin(1to9)) | 
